US4374149A, “α-{[(Arylalkyl)amino]alkyl}-4-hydroxy-3-(lower-alkylsul finyl)benzenemethanols” (Sterling Drug Inc., priority 1978, dated 1983)
Where a name gives a salt, the structure may show the parent alone.

What was measured:
systolic blood pressure = assay: Antihypertensive activity, reduction in systolic blood pressure, single oral medication, unanesthetized spontaneous hypertensive rat; assay type: in vivo; settings: P.O.; for Antihypertensive activity SH Rat AHD40 (single oral dose required to induce a 40 mm. average reduction in systolic blood pressure): unanesthetized SH rat
Experimental: Antihypertensive activity was determined on the basis of the observed reduction in systolic blood pressure measured according to the method of H. Kersten et al., J. Lab. and Clin. Med. 32, 1090 (1947) following a single oral medication in the unanesthetized spontaneous hypertensive rat described by Okamato et al., Japan Circulation J. 27, 282 (1963).
^a AHD40 = single oral dose required to induce a 40 mm. average

β-adrenergic = β-adrenergic blocking activity, inhibition of isoproterenol-elicited heart rate increase in pentobarbitalized dog; assay type: in vivo; settings: i.v.; for Dog β-blockade AED50 (approximate intravenous dose for 50% inhibition of isoproterenol-elicited heart rate increase): pentobarbitalized dog
Experimental: The β-adrenergic blocking activity was determined in the pentobarbitalized dog as judged by the ability of the test compound to inhibit the elevation in heart rate elicited by a 0.5 mcg./kg. i.v. injection of isoproterenol.
^e AED50 = approximate intravenous dose required to cause 50%

blood pressure = assay: Antihypertensive activity, sustained lowering of blood pressure, repeated oral medication, unanesthetized trained renal hypertensive dog; assay type: in vivo
Text: Antihypertensive activity was also judged on the basis of sustained reduction of blood pressure observed in the unanesthetized trained renal hypertensive dog following repeated oral medication according to the procedure described by Lape et al., Arch.
^b MED10 = minimum repeated oral daily dose required to effect a

[1] = tested on: isolated rabbit ear artery; assay: Vasodilator activity, perfusion pressure in isolated rabbit ear artery
Text: Vasodilator activity was judged on the basis of observed reduction in perfusion pressure in the hind limb vasculature of the anesthetized dog determined according to the procedure described by Jandhyala et al., European J. Pharm. 17, 357 (1972), and also on the basis of percent reduction in perfusion pressure as measured in the isolated rabbit ear artery according to the method described by De LaLande et al., Aust. J. Exp. Biol. Med. Sci. 43, 639 (1965).
^d Vasodilation is expressed as the percentage reduction in perfusion

Row | Compound | Actual reduction in blood pressure observed at the indicated dose (systolic blood pressure; 50 mg./kg.) [mm. Hg] | Antihypertensive activity SH Rat AHD40 (single oral dose required to induce a 40 mm. average reduction in systolic blood pressure) (systolic blood pressure) [mg/kg] | Dog β-blockade AED50 (approximate intravenous dose for 50% inhibition of isoproterenol-elicited heart rate increase) (β-adrenergic) | further results
1 | COc1ccc(CCC(C)NCC(O)c2ccc(O)c([S+](C)[O-])c2)cc1 (centres unmarked) [Example 24C, hydrochloride] | -12 |  |  | Antihypertensive activity SH Rat AHD40 (single oral dose required to induce a 40 mm. average reduction in systolic blood pressure) (systolic blood pressure; hydrochloride): > 50 mg/kg; Dog β-blockade AED50 (approximate intravenous dose for 50% inhibition of isoproterenol-elicited heart rate increase) (β-adrenergic; hydrochloride): ca. 0.50 mg./kg.
2 | COc1ccc(CCC(C)NCC(O)c2ccc(O)c([S+](C)[O-])c2)cc1 (single isomer, unassigned) [Example 10, 4-hydroxy-α-<{[3-(4-methoxyphenyl)-1-methylpropyl]amino}methyl>-3-(methylsulfinyl)benzenemethanol hydrochloride] |  |  |  | Actual percentage reduction in blood pressure observed at the indicated dose (blood pressure; tid., 0.5 mg./kg., hydrochloride): 8%; Renal Hypertensive Dog MED10 (minimum repeated oral daily dose for sustained lowering of blood pressure of 10% or greater) (blood pressure; tid., hydrochloride): > 0.5 mg/kg; Rabbit Ear Artery vasodilation (percentage reduction in perfusion pressure from control level) ([1]; 2 × 10^-4 M, 200 µM): 50%; Actual reduction in blood pressure observed at the indicated dose (systolic blood pressure; 16.0 mg./kg., hydrochloride): -17 mm. Hg; Antihypertensive activity SH Rat AHD40 (single oral dose required to induce a 40 mm. average reduction in systolic blood pressure) (systolic blood pressure; hydrochloride): > 16.0 mg/kg; Actual percentage inhibition of heart rate increase above control level observed at the indicated dose (β-adrenergic; 0.1 mg./kg.): 23%; Dog β-blockade AED50 (approximate intravenous dose for 50% inhibition of isoproterenol-elicited heart rate increase) (β-adrenergic; hydrochloride): > 0.10 mg/kg
3 | COc1ccc(CCCC(C)NCC(O)c2ccc(O)c([S+](C)[O-])c2)cc1 (stereo not drawn) [Example 21D, 4-hydroxy-α-<{[4-(4-methoxyphenyl)-1-methylbutyl]amino}methyl>-3-(methylsulfinyl)benzenemethanol acetate salt] |  | 40.0 |  | Rabbit Ear Artery vasodilation (percentage reduction in perfusion pressure from control level) ([1]; 1 × 10^-3 M, 1000 µM): 50%
4 | COc1ccc(CCNCC(O)c2ccc(O)c([S+](C)[O-])c2)cc1OC (stereo not drawn) [Example 27C, α-<{[2-(3,4-dimethoxyphenyl)ethyl]amino}-methyl>-4-hydroxy-3-(methylsulfinyl)benzenemethanol hydrochloride] | -26 | > 50 | ca. 0.10 mg./kg. | 
5 | COc1ccc(CCCC(C)(C)NCC(O)c2ccc(O)c([S+](C)[O-])c2)cc1 (stereo not drawn) [Example 22D, 4-hydroxy-α-<{[4-(4-methoxyphenyl)-1,1-dimethylbutyl]amino}methyl>-3-(methylsulfinyl)benzenemethanol] | -12 | > 50.0 |  | 
6 | CCOCCOc1ccc(C(O)CNC(C)CCc2ccc(OC)cc2)cc1[S+](C)[O-] (stereo not drawn) [Example 32E, 4-[2-(ethoxy)ethoxy]-α-<{[3-(4-methoxyphenyl)-1-methylpropyl]amino}methyl>-3-(methylsulfinyl)benzenemethanol hydrochloride] |  | > 150 |  | 
7 | COc1ccc(CCC(C)NCCc2ccc(O)c([S+](C)[O-])c2)cc1 (single isomer, unassigned) [Example 29C, 4-<2-{[3-(4-methoxyphenyl)-1-methylpropyl]amino}ethyl>-2-(methylsulfinyl)phenol hydrochloride] |  | < 20 | > 1.0 mg/kg | Renal Hypertensive Dog MED10 (minimum repeated oral daily dose for sustained lowering of blood pressure of 10% or greater) (blood pressure; administered once per day): > 40 mg/kg; Actual reduction in blood pressure observed at the indicated dose (systolic blood pressure; 20 mg./kg.): -54 mm. Hg; Actual percentage inhibition of heart rate increase above control level observed at the indicated dose (β-adrenergic; 1.0 mg./kg.): 43%
8 | CC(CCc1ccc(O)cc1)NCC(O)c1ccc(O)c([S+](C)[O-])c1 (single isomer, unassigned) [Example 23C, 4-hydroxy-α-<{[4-(4-hydroxyphenyl)-1-methylpropyl]amino}methyl>-3-(methylsulfinyl)benzenemethanol cyclohexylsulfamate salt] |  | 40.0 | < 0.025 mg/kg | Actual percentage inhibition of heart rate increase above control level observed at the indicated dose (β-adrenergic; 0.025 mg./kg.): 80%
9 | C[S+]([O-])c1cc(CCNC(C)(C)CCc2ccccc2)ccc1O.Cl (centres unmarked) [Example 35C, 4-{2-[(1,1-dimethyl-3-phenylpropyl)amino]ethyl}-2-(methylsulfinyl)phenol hydrochloride] | -20 | > 50 | 0.6 mg/kg | 
10 | COc1ccc(CCC(C)NCC(O)c2ccc(OC(=O)c3ccccc3)c([S+](C)[O-])c2)cc1 (stereo not drawn) [Example 8, 4-hydroxy-α-<{[3-(4-methoxyphenyl)-1-methylpropyl]amino}methyl>-3-(methylsulfinyl)benzenemethanol 4-benzoate hemi-sulfate] |  | 9 |  | 
11 | CC(CCc1ccccc1)NCCc1ccc(O)c([S+](C)[O-])c1 (centres unmarked) [Example 33C, 4-<2-{[1-methyl-3-phenylpropyl]amino}ethyl>-2-(methylsulfinyl)phenolhydrochloride] | -28 | > 50 | 1.0 mg/kg | 
12 | CC(CCc1ccc2c(c1)OCO2)NCC(O)c1ccc(O)c([S+](C)[O-])c1 (stereo not drawn) [Example 31C, 4-hydroxy-α-<{[3-(3,4-methylenedioxyphenyl)-1-methylpropyl]amino}methyl>-3-(methylsulfinyl)benzenemethanol hydrochloride] | -54 | < 50 | < 0.025 mg/kg | Actual percentage inhibition of heart rate increase above control level observed at the indicated dose (β-adrenergic; 0.025 mg./kg.): 60%
13 | COc1ccc(CCC(C)NCC(O)c2ccc(O)c([S+](C)[O-])c2)cc1 (stereo not drawn) [Example 5F, 4-hydroxy-α-<{[3-(4-methoxyphenyl)-1-methylpropyl]amino}methyl>-3-(methylsulfinyl)benzenemethanol] |  | 4.0 | < 0.25 mg/kg | Rabbit Ear Artery vasodilation (percentage reduction in perfusion pressure from control level) ([1]; 5 × 10^-5 M, 50 µM): 50%; Actual percentage inhibition of heart rate increase above control level observed at the indicated dose (β-adrenergic; 0.25 mg./kg.): 70%
14 | COc1ccc(CCC(C)NCCc2ccc(O)c([S+](C)[O-])c2)cc1 (centres unmarked) [Example 37C, 4-<2-{[3-(4-methoxyphenyl)-1-methylpropyl]amino}ethyl>-2-(methylsulfinyl)phenol hydrochloride] |  | > 150 |  | Actual reduction in blood pressure observed at the indicated dose (systolic blood pressure; 150 mg./kg., hydrochloride): -21 mm. Hg
15 | COc1ccc(CCC(C)NCCc2ccc(O)c([S+](C)[O-])c2)cc1 (centres unmarked) [Example 36C, 4-<2-{[3-(4-methoxyphenyl)-1-methylpropyl]amino}ethyl>-2-(methylsulfinyl)phenol hydrochloride] |  | > 150 |  | Actual reduction in blood pressure observed at the indicated dose (systolic blood pressure; 150 mg./kg., hydrochloride): -28 mm. Hg
16 | COc1cc(CCNCC(O)c2ccc(O)c([S+](C)[O-])c2)cc(OC)c1OC (stereo not drawn) [Example 28C, 4-hydroxy-3-(methylsulfinyl)-α-<{[2-(3,4,5-trimethoxyphenyl)ethyl]-amino}methyl>benzenemethanol hydrochloride] | -15 | > 50 |  | 
17 | COc1ccc(CCC(C)NCC(O)c2ccc(O)c([S+](C)[O-])c2)cc1 (stereo not drawn) [Example 5G, 4-hydroxy-α-<{[3-(4-methoxyphenyl)-1-methylpropyl]amino}methyl>-3-(methylsulfinyl)benzenemethanol] |  |  |  | Rabbit Ear Artery vasodilation (percentage reduction in perfusion pressure from control level) ([1]; 1 × 10^-4 M, 100 µM): 71%
18 | COc1ccc(CCC(C)NCC(=O)c2ccc(OC(=O)c3ccccc3)c([S+](C)[O-])c2)cc1Br (centres unmarked) [Example 7E, 4'-hydroxy-2-{[3-(3-bromo-4-methoxyphenyl)-1-methylpropyl]-amino}-3'-(methylsulfinyl)acetophenone 4'-benzoate hydrochloride] |  | 30 | > 1.0 mg/kg | Renal Hypertensive Dog MED10 (minimum repeated oral daily dose for sustained lowering of blood pressure of 10% or greater) (blood pressure; administered once per day): ~.10 mg/kg; Actual percentage inhibition of heart rate increase above control level observed at the indicated dose (β-adrenergic; 1.0 mg./kg.): 12%
19 | COc1ccc(CC(C)NC(C)C(O)c2ccc(O)c([S+](C)[O-])c2)cc1 (stereo not drawn) [Example 15F, 4-hydroxy-α-<{1-[2-(4-methoxyphenyl)-1-methylethyl]amino}ethyl>-3-(methylsulfinyl)benzenemethanol acetate salt] |  | > 20.0 |  | Actual reduction in blood pressure observed at the indicated dose (systolic blood pressure; 20 mg./kg.): -25 mm. Hg
20 | COc1ccc(CCC(C)NCC(=O)c2ccc(OC(=O)c3ccccc3)c([S+](C)[O-])c2)cc1 (centres unmarked) [Example 25, 4'-hydroxy-2-{[3-(4-methoxyphenyl)-1-methylpropyl]amino}-3'-(methylsulfinyl)acetophenone 4'-benzoate hydrochloride] | -12 | > 50 |  | 
